The values that follow come from patent US20190111059A1, “COMPOSITIONS AND METHODS FOR TREATING AUTISM SPECTRUM DISORDER” (Marinus Pharmaceuticals, Inc., priority 2017, published 2019).

Molecules are shown by their SMILES. Where a name gives a salt, the structure may show the parent alone.

Series [1] has as its system children with ASD who were positive for at least one FRAA. In words: Controlled open-label study of high-dose folinic acid (Example 1). Format: in vivo, human. To be noted: 2 mg kg^−1 per day in two divided doses, maximum 50 mg per day.
The test system of series [2] is children with non-syndromic autism spectrum disorder (ASD) and language impairment. Briefly: Randomized placebo-controlled trial: Behavioral Assessment System for Children (BASC). Format: in vivo, human. The following applies: for BASC Internalizing problems, estimated effect: calcium salt. The method, then: The Behavioral Assessment System for Children 2nd Edition (“BASC”) ranges from 185 to 306 items and is validated in ASD. Each item is rated 0 to 3 with higher scores indicating greater severity. Standardized T-Scores (mean 50, standard deviation 10) range 20-120 for externalizing, internalizing and behavioral symptoms and 10-90 for adaptive skills. This two-arm double-blind randomized placebo-controlled parallel study with a 1:1 allocation was performed at Arkansas Children's Research Institute (Little Rock, Ark., USA) from 4 Jun. 2012 to 22 Nov. 2013. Parent and teacher questionnaires were requested at baseline and 6 and 12 weeks after starting treatment. Parents were asked to deliver baseline questionnaires to teachers or therapists. After the first visit, questionnaires were mailed to the parents and teachers at least 1 week prior to the target date of completion. Parents were asked to bring the completed teacher and parent 12-week questionnaires to the final assessment. Other questionnaires were returned in a preaddressed postage-paid envelope. The target dose of the intervention (INN: DL folinic acid calcium salt; USAN: leucovorin calcium) was 2 mg kg^−1 per day (maximum 50 mg per day) in two equally divided doses with half of the target dose given during the first 2 weeks. Dye-free, milk-product-free, vegetarian capsules were provided in three strengths (5, 10 and 25 mg) by Lee Silsby Compounding Pharmacy (Cleveland Heights, Ohio, USA). Certificate of analysis was provided for each capsule strength by an independent analytical service (Eagle Analytical Services, Houston, Tex., USA) for each batch of capsules produced. In all cases, potency was at least 99%. Secondary outcomes. Secondary outcome measures included the Ohio Autism Clinical Impression Scale (OACIS), Vineland Adaptive Behavior Scale 2nd Edition (VABS) Survey Interview Form and several questionnaires. Parents and teachers were asked to complete the Aberrant Behavior Checklist (ABC), Social Responsiveness Scale (SRS) and Behavioral Assessment System for Children 2nd Edition (BASC). Only parents were asked to complete the Autism Impact Measure (AIM) and Autism Symptoms Questionnaire (ASQ). Secondary outcome measures were analyzed using the mixed-model regression. Because of the large number of secondary outcomes, correction for multiple comparisons was conducted using the false discovery rate.

Series [3] has as its system children with neurodevelopmental regression and neurological abnormalities (cerebral folate deficiency). The following applies: six children with cerebral folate deficiency; cited from earlier work.
Series [4] relates to children with ASD and low CSF folate concentrations. The following applies: high-dose; case reports and series; cited from earlier work.
Where [5] appears, read: vs placebo, mixed-model regression, lower = better.

For `Nc1nc2c(c(=O)[nH]1)N(C=O)C(CNc1ccc(C(=O)N[C@@H](CCC(=O)O)C(=O)O)cc1)CN2` (mixture of isomers) [Folinic acid, DL folinic acid calcium salt], in series [1], the Adverse effects result is “very few adverse effects reported”; the “Improvements in verbal communication, receptive and expressive language, attention, and stereotypical behavior” value is recorded as “significant improvements”. The “BASC Adaptive skills, 12-week assessment mean” value in series [2] (2 mg kg^−1 per day, 12 weeks, baseline 24.5, higher = better) stood at 27.8 T-Scores. Further, the “BASC Internalizing problems, 12-week assessment mean” value in series [2] (2 mg kg^−1 per day, 12 weeks, baseline 49.3, lower = better) was found to be 43.1 T-Scores. The “BASC Externalizing problems, 12-week assessment mean” value in series [2] (2 mg kg^−1 per day, 12 weeks, baseline 60.9, lower = better) came out at 57.7 T-Scores. Also, in series [2] (2 mg kg^−1 per day, 12 weeks, baseline 71.1, lower = better), the “BASC Behavior problems, 12-week assessment mean” value was found to be 65.3 T-Scores. Moreover, the “BASC Adaptive skills, estimated effect” value in series [2] (vs placebo, mixed-model regression, higher = better) is 0.4 T-Scores. In addition, in series [2] (setting [5]), the “BASC Behavior problems, estimated effect” value is listed as 0.1 T-Scores; the “BASC Externalizing problems, estimated effect” value is −0.1 T-Scores; the “BASC Internalizing problems, estimated effect” value was −1.1 T-Scores. Further, in series [2] (vs placebo, mixed-model regression, lower = better, listed as folinic acid), the “BASC Internalizing problems, estimated effect” value is on record as “significantly improved”. In addition, in series [3], the CSF folate concentrations entry was “normalized” and the Neurological symptoms result was “significantly improved”. Besides, the “Symptoms in children with ASD and low CSF folate concentrations” value in series [4] is “markedly improves symptoms”.
